Test results reported in PMC12286339 (PLOS One, 2025).
Values joined by “and” are separate entries in the source; they are usually repeats but may differ in a detail not shown here. Identical values can stand only once.

What was measured:
[1] = 2nd mouse trial: co-administration with oxacillin, drug in blood, liver, heart and brain; conditions: 24 h after 30uL IV of Tun 6.7 mg/mL + oxacillin 6.7 mg/mL, individual mice
Method: In the second trial, which was a drug co-localization study, forty (20 male and 20 female) C57BL/6 mice were enrolled on Study Day 0 and were dosed according to the experimental design shown in Fig 2A and S3 Table. Body weights and clinical observations were recorded as before. […] Blood samples were taken (50 μL) 5 min, 15 min, 30 min, 1h, 2h, 4h, 6h, and 24h post-injection. At the end of the study (24 h post dose) the mice were euthanized by CO2 asphyxiation, and liver, brain and heart were collected. The organs were homogenized in ethanol, then filtered to remove solids, and the ethanolic filtrate dried by Speedvac evaporation. The dried residues were stored at −80 °C and shipped on dry ice. Drug concentrations in tissue were measured by LC–MS/MS as previously described.

[2] = Pharmacokinetics in blood of C57BL/6 mice, 1st trial (single IV bolus, LC-MS, two-compartment model); format: in vivo; conditions: individual mice, Tun 10 mg/mL 30uL IV
Method: Eighty, 40 male (M) and 40 female (F), C57BL/6 mice were enrolled in the study on Day 0. Body weights, clinical observations, and digital caliper measurements were recorded. Eight (4M/4F) animals per treatment received a single 30uL intravenous bolus dose of the experimental samples (or control DMSO carrier) via the lateral tail vein, as shown in Fig 2A and S1 Table. […] After the first dosing, blood draws for the PK study were at 8-time points (5 min, 15 min, 30 min, 1 h, 2 h, 4 h, 6 h, 24 h). The mice were subdivided into 2 groups of 4 (2M/2F) mice each, with each subgroup having ~50 ul of blood collected via retro-orbital bleed for 4-time points (subgroup 1: 5 min, 30 min, 2h, and 6 h; subgroup 2: 15 min, 1h, 4h, and 24 h). In life, a collection of 50 μL of blood was diluted with 450 μL of ethanol and evaporated to dryness on a Speedvac evaporator under sterile conditions. The dried residues were stored at −80 °C and were shipped on dry ice to NCAUR, Peoria, for analysis. At the end of the study (24 h), the animals were euthanized, and terminal blood samples from all mice (100 µL) were collected via cardiac puncture, diluted with 900 μL of ethanol, and evaporated to dryness on a Speedvac. The dried residues are stored at −80 °C until ready for analysis.
For the comparative PK of tunicamycins in blood, drug concentrations were measured by LC–MS/MS as previously described. Different compartmental models (0, 1, or 2 compartments) and weighting options were assessed for goodness of fit by visual inspection of the observed versus predicted plots, weighted residual versus observed and predicted plots, and comparison of Akaike Information Criterion (AICc) values. A two-compartment IV bolus model was determined to describe the data best (S1 Fig).
Pharmacokinetic parameters were calculated by two-compartmental using a linear regression analysis and residuals method to calculate using Microsoft Excel 2024 using standard equations (Atkinson; 2007; Miyamato et al., 2019). Details about the PK equations to calculate drug concentrations and PK parameters are listed in the S1 Appendix.

[3] = in vivo; cited from earlier work
sheep = system: sheep; design: method as in earlier work; conditions: cumulative from multiple smaller doses; cited from earlier work

Compound: CCC(C)CCCCCCCC/C=C/C(=O)N[C@H]1[C@H](O[C@H]2O[C@H](CO)[C@@H](O)[C@H](O)[C@H]2NC(C)=O)O[C@H](C[C@@H](O)[C@H]2O[C@@H](n3ccc(=O)[nH]c3=O)[C@H](O)[C@@H]2O)[C@H](O)[C@@H]1O (some centres unmarked) [C15a]
- N-acyl variants in brain (2nd trial) [1]: 0 µg/mL
- N-acyl variants in heart (2nd trial) [1]: 0 µg/mL
- N-acyl variants in liver (2nd trial) [1]: 0 µg/mL and 0.03337 µg/mL and 0.02831 µg/mL
- N-acyl variants in blood (1st trial) ([2]; time 0:05:00 (5 min)): 0.654 µg/mL and 0.6 µg/mL and 0 µg/mL
- N-acyl variants in blood (1st trial) ([2]; time 0:15:00 (15 min)): 0 ug/mL (3×) and 0.45 ug/mL
- N-acyl variants in blood (1st trial) ([2]; time 0:30:00 (30 min)): 0 µg/mL
- N-acyl variants in blood (1st trial) ([2]; time 1:00:00 (1 h)): 0 µg/mL
- N-acyl variants in blood (1st trial) ([2]; time 2:00:00 (2 h)): 0 µg/mL
- N-acyl variants in blood (1st trial) ([2]; time 4:00:00 (4 h)): 0 µg/mL
- N-acyl variants in blood (1st trial) ([2]; time 6:00:00 (6 h)): 0 µg/mL
- N-acyl variants in blood (1st trial) ([2]; time 24:00:00 (24 h)): 0 µg/mL

Compound: CC(=O)N[C@H]1[C@@H](O[C@@H]2O[C@H](C[C@@H](O)[C@H]3O[C@@H](n4ccc(=O)[nH]c4=O)[C@H](O)[C@@H]3O)[C@H](O)[C@H](O)[C@H]2NC(=O)/C=C/CCCCCCCCCC(C)C)O[C@H](CO)[C@@H](O)[C@@H]1O [C15i]
- N-acyl variants in brain (2nd trial) [1]: 0 µg/mL
- N-acyl variants in heart (2nd trial) [1]: 0 µg/mL
- N-acyl variants in liver (2nd trial) [1]: 0 µg/mL and 0.05015 µg/mL and 0.3411 µg/mL and 0.2948 µg/mL
- N-acyl variants in blood (1st trial) ([2]; time 0:05:00 (5 min)): 4.16 µg/mL and 5.09 µg/mL and 2.96 µg/mL
- N-acyl variants in blood (1st trial) ([2]; time 0:15:00 (15 min)): 3.05 µg/mL and 3.14 µg/mL and 1.44 µg/mL and 3.28 µg/mL
- N-acyl variants in blood (1st trial) ([2]; time 0:30:00 (30 min)): 0 ug/mL (2×) and 0.88 ug/mL and 1.74 ug/mL
- N-acyl variants in blood (1st trial) ([2]; time 1:00:00 (1 h)): 0 ug/mL (2×) and 0.77 ug/mL and 1.66 ug/mL
- N-acyl variants in blood (1st trial) ([2]; time 2:00:00 (2 h)): 0 µg/mL
- N-acyl variants in blood (1st trial) ([2]; time 4:00:00 (4 h)): 0 µg/mL
- N-acyl variants in blood (1st trial) ([2]; time 6:00:00 (6 h)): 0 µg/mL
- N-acyl variants in blood (1st trial) ([2]; time 24:00:00 (24 h)): 0 µg/mL

Compound: CCCCCCCCCCCCCC/C=C/C(=O)N[C@H]1[C@H](O[C@H]2O[C@H](CO)[C@@H](O)[C@H](O)[C@H]2NC(C)=O)O[C@H](C[C@@H](O)[C@H]2O[C@@H](n3ccc(=O)[nH]c3=O)[C@H](O)[C@@H]2O)[C@H](O)[C@@H]1O [C17s]
- N-acyl variants in brain (2nd trial) [1]: 0 µg/mL
- N-acyl variants in heart (2nd trial) [1]: 0 µg/mL
- N-acyl variants in liver (2nd trial) [1]: 0 µg/mL and 0.1695 µg/mL and 0.1754 µg/mL
- N-acyl variants in blood (1st trial) ([2]; time 0:05:00 (5 min)): 0 µg/mL
- N-acyl variants in blood (1st trial) ([2]; time 0:15:00 (15 min)): 0 µg/mL
- N-acyl variants in blood (1st trial) ([2]; time 0:30:00 (30 min)): 0 µg/mL
- N-acyl variants in blood (1st trial) ([2]; time 1:00:00 (1 h)): 0 µg/mL
- N-acyl variants in blood (1st trial) ([2]; time 2:00:00 (2 h)): 0 µg/mL
- N-acyl variants in blood (1st trial) ([2]; time 4:00:00 (4 h)): 0 µg/mL
- N-acyl variants in blood (1st trial) ([2]; time 6:00:00 (6 h)): 0 µg/mL
- N-acyl variants in blood (1st trial) ([2]; time 24:00:00 (24 h)): 0 µg/mL

Compound: Cc1onc(-c2ccccc2)c1C(=O)N[C@@H]1C(=O)N2[C@@H]1SC(C)(C)[C@@H]2C(=O)O [oxacillin]
- estimated t1/2 [3]: 7.8 min

Compound: corynetoxins [Cnx]
- oral lethal dose (sheep): 3.2 to 5.6 mg/kg
